Measured values published in patent publication US4601984A, “Process to produce antibiotics X-14873 A, G and H” (Hoffmann-La Roche Inc., priority 1983, dated 1986).
≈ marks a conversion by molar mass, not a printed value.

How the values were obtained:
Strain X-14873 = assay: Streptomycin sensitivity of the producing strain (disc); type: cell-based, Streptomyces sp. X-14873; details: Streptomyces, X14873; 10 mcg in 1/4" disc
[1] = tested on: Staphylococcus aureus Smith; assay: Minimum Inhibitory Concentration; type: cell-based
Escherichia coli 257 = assay: Minimum Inhibitory Concentration; type: cell-based
Salmonella typhi P58A = assay: Minimum Inhibitory Concentration; type: cell-based; details: Salmonella enterica, read-out: Minimum Inhibitory Concentration
Klebsiella pneumoniae A = assay: Minimum Inhibitory Concentration; type: cell-based
Proteus mirabilis 190 = assay: Minimum Inhibitory Concentration; type: cell-based
Pseudomonas aeruginosa B = assay: Minimum Inhibitory Concentration; type: cell-based
Serratia marcescens SM = assay: Minimum Inhibitory Concentration; type: cell-based
[2] = tested on: Enterobacter cloacae 5699; assay: Minimum Inhibitory Concentration; type: cell-based
[3] = tested on: Trichophyton mentagrophytes; assay: Minimum Inhibitory Concentration; type: cell-based
Microsporum audouini = assay: Minimum Inhibitory Concentration; type: cell-based
Streptococcus faecium = assay: Minimum Inhibitory Concentration; type: cell-based; details: Enterococcus faecium, ATCC8043; Streptococcus faecium ATCC 8043
Staphylococcus aureus = assay: Minimum Inhibitory Concentration; type: cell-based; details: ATCC6538P; Staphylococcus aureus ATCC 6538P
Sarcina lutea = assay: Minimum Inhibitory Concentration; type: cell-based; details: Micrococcus luteus, ATCC9341; Sarcina lutea ATCC 9341
Bacillus megaterium = assay: Minimum Inhibitory Concentration; type: cell-based; details: Priestia megaterium, ATCC8011; Bacillus megaterium ATCC 8011
Bacillus sp. E = assay: Minimum Inhibitory Concentration; type: cell-based; details: ATCC27359; Bacillus sp. E ATCC 27359
Bacillus subtilis = assay: Minimum Inhibitory Concentration; type: cell-based; details: NRRL558; Bacillus subtilis NRRL 558
Bacillus sp. TA = assay: Minimum Inhibitory Concentration; type: cell-based; details: ATCC27860; Bacillus sp. TA ATCC 27860
Mycobacterium phlei = assay: Minimum Inhibitory Concentration; type: cell-based; details: Mycolicibacterium phlei, ATCC355; Mycobacterium phlei ATCC 355
Streptomyces cellulosae = assay: Minimum Inhibitory Concentration; type: cell-based; details: ATCC3313; Streptomyces cellulosae ATCC 3313
Paecilomyces varioti = assay: Minimum Inhibitory Concentration; type: cell-based; details: ATCC25820; Paecilomyces varioti ATCC 25820
Penicillum digitatum = assay: Minimum Inhibitory Concentration; type: cell-based; details: Penicillum digitatum ATCC 26821
Candida albicans = assay: Minimum Inhibitory Concentration; type: cell-based; details: NRRL477; Candida albicans NRRL 477
Saccharomyces cerevisiae = assay: Minimum Inhibitory Concentration; type: cell-based; details: ATCC4226; Saccharomyces cerevisiae ATCC 4226
[4] = tested on: volatile fatty acids produced in the rumen; assay: Ratio of volatile fatty acids produced in the rumen (GLC); type: in vivo, steer; details: for VFA Ratio: C3/(C2 + nC4): ± one standard deviation, 3 animals
ruminants = assay: Growth promotion and feed utilization in ruminants; type: in vivo, e.g. cattle
Treponema hyodysenteriae = assay: Minimum inhibitory concentration against the agent of swine dysentery; type: cell-based; details: Brachyspira hyodysenteriae
E. tenella = assay: In vitro coccidiostatic activity; type: cell-based; details: Eimeria tenella, read-out: in vitro activity against E. tenella, active concentration
gram-positive bacteria = assay: Activity against gram-positive bacteria, summary; type: cell-based
[5] = Oral toxicity (LD50) in mice, 24 hours; details: mouse, in vivo
[6] = Medication day 2, 30 g/ton in ration, nonmedicated 0.211 ± 0.019
[7] = Medication day 5, 30 g/ton in ration, nonmedicated 0.248 ± 0.058
[8] = Medication day 7, 30 g/ton in ration, nonmedicated 0.325 ± 0.166
[9] = Medication day 9, 30 g/ton in ration, nonmedicated 0.338 ± 0.164
[10] = Medication day 12, 30 g/ton in ration, nonmedicated 0.293 ± 0.148
[11] = Pre-medication day 1 (baseline)
[12] = Pre-medication day 3 (baseline)
[13] = Pre-medication day 5 (baseline)
[14] = Pre-medication day 8 (baseline)
[15] = Pre-medication day 10 (baseline)

SMILES | MIC (Streptococcus faecium) [µg/mL] | MIC (Staphylococcus aureus) [µg/mL] | MIC (Sarcina lutea) [µg/mL] | MIC (Bacillus megaterium) [µg/mL] | MIC (Bacillus sp. E) [µg/mL] | MIC (Bacillus subtilis) [µg/mL] | MIC (Bacillus sp. TA) [µg/mL] | MIC (Mycobacterium phlei) [µg/mL] | MIC (Streptomyces cellulosae) [µg/mL] | MIC (Paecilomyces varioti) [µg/mL] | MIC (Penicillum digitatum) [µg/mL] | MIC (Candida albicans) [µg/mL] | MIC (Saccharomyces cerevisiae) [µg/mL] | VFA Ratio: C3/(C2 + nC4) [4, 6] | VFA Ratio: C3/(C2 + nC4) [4, 7] | VFA Ratio: C3/(C2 + nC4) [4, 8] | VFA Ratio: C3/(C2 + nC4) [4, 9] | VFA Ratio: C3/(C2 + nC4) [4, 10] | effect on growth of gram-positive bacteria (gram-positive bacteria) | LD50 at 24 h [5] [mg/kg] | other results
[H]/N=C(/N)N[C@H]1[C@H](O)[C@@H](O)[C@H](O[C@@H]2O[C@@H](C)[C@](O)(C=O)[C@H]2O[C@@H]2O[C@@H](CO)[C@H](O)[C@@H](O)[C@@H]2NC)[C@@H](N/C(N)=N\[H])[C@@H]1O [Streptomycin] |  |  |  |  |  |  |  |  |  |  |  |  |  |  |  |  |  |  |  |  | zone of inhibition at 10 µg/disc (Strain X-14873): 13 mm
CCC(C(=O)C(C)C(O)C(C)C1OC(O)(CC(=O)O)C(CC)C(O)C1C)C1OC(C)(C2(O)OC(CC)(C(O)CC)CC2C)CC1C (stereo not drawn) [Antibiotic X-14873A] | 0.1 (≈ 0.152 µM) | 6.3 (≈ 9.56 µM) | 3 (≈ 4.55 µM) | 3 (≈ 4.55 µM) | 0.8 (≈ 1.21 µM) | 3 (≈ 4.55 µM) | 3 (≈ 4.55 µM) | 3 (≈ 4.55 µM) | 12.5 (≈ 19 µM) | 125 (≈ 190 µM) | 500 (≈ 759 µM) | 62.5 (≈ 94.9 µM) | 500 (≈ 759 µM) | 0.445 ± 0.075 | 0.584 ± 0.328 | 0.679 ± 0.448 | 0.642 ± 0.387 | 0.495 ± 0.242 | adversely affecting the growth of certain gram-positive bacteria | 120 | MIC [1]: 64 µg/mL (≈ 97.1 µM); MIC (Escherichia coli 257): 128 µg/mL (≈ 194 µM); MIC (Salmonella typhi P58A): 128 µg/mL (≈ 194 µM); MIC (Klebsiella pneumoniae A): 128 µg/mL (≈ 194 µM); MIC (Proteus mirabilis 190): 128 µg/mL (≈ 194 µM); MIC (Pseudomonas aeruginosa B): 128 µg/mL (≈ 194 µM); MIC (Serratia marcescens SM): 128 µg/mL (≈ 194 µM); MIC [2]: 128 µg/mL (≈ 194 µM); MIC [3]: 100 µg/mL (≈ 152 µM); MIC (Microsporum audouini): 100 µg/mL (≈ 152 µM); increase over control of the volatile fatty acid ratio vs lasalocid ([4]; 30 g/ton, compared with lasalocid): greater increase over control of the volitile fatty acid ratio than lasalocid; VFA Ratio: C3/(C2 + nC4) [4, 11]: 0.213 ± 0.016; VFA Ratio: C3/(C2 + nC4) [4, 12]: 0.235 ± 0.036; VFA Ratio: C3/(C2 + nC4) [4, 13]: 0.234 ± 0.042; VFA Ratio: C3/(C2 + nC4) [4, 14]: 0.245 ± 0.046; VFA Ratio: C3/(C2 + nC4) [4, 15]: 0.216 ± 0.038; efficiency of feed utilization in ruminant animals (ruminants; administered orally): increases the efficiency of feed utilization; activity as a growth promotant in ruminants (ruminants; ruminants, e.g. cattle): exhibit activity as a growth promotant in ruminants; MIC (Treponema hyodysenteriae): 5 µg/mL (≈ 7.59 µM); minimal effective concentration (E. tenella): 200 µg/mL
CCC(C(=O)C(C)C(O)C(C)C1OC(C)(O)C(CC)C(O)C1C)C1OC(C)(C2(O)OC(CC)(C(O)CC)CC2C)CC1C (stereo not drawn) [Antibiotic X-14873H] | 2 (≈ 3.25 µM) | 8 (≈ 13 µM) | 16 (≈ 26 µM) | 4 (≈ 6.51 µM) | 2 (≈ 3.25 µM) | 16 (≈ 26 µM) | 8 (≈ 13 µM) | > 1000 | > 1000 | > 1000 | > 1000 | > 1000 | > 1000 |  |  |  |  |  | adversely affecting the growth of certain gram-positive bacteria | 4000 | 
CC[C@@H](C(=O)[C@@H](C)[C@@H](O)[C@H](C)CCc1ccc(C)c(O)c1C(=O)O)[C@H]1O[C@](CC)([C@H]2CC[C@](O)(CC)[C@H](C)O2)C[C@@H]1C [Lasalocid, lasalocid, reference compound] |  |  |  |  |  |  |  |  |  |  |  |  |  | 0.376 ± 0.109 | 0.390 ± 0.073 | 0.373 ± 0.015 | 0.381 ± 0.064 | 0.372 ± 0.056 |  |  | VFA Ratio: C3/(C2 + nC4) [4, 11]: 0.229 ± 0.013; VFA Ratio: C3/(C2 + nC4) [4, 12]: 0.255 ± 0.051; VFA Ratio: C3/(C2 + nC4) [4, 13]: 0.244 ± 0.060; VFA Ratio: C3/(C2 + nC4) [4, 14]: 0.236 ± 0.041; VFA Ratio: C3/(C2 + nC4) [4, 15]: 0.224 ± 0.011
CCC(C(=O)C(C)C(O)C(C)C1OC(C)(O)C(CC)C(O)C1C)C1OC(C)(C23OC(CC)C(CC)(CC2C)O3)CC1C (stereo not drawn) [Antibiotic X-14873G] | 63 (≈ 106 µM) | > 1000 | > 1000 | > 1000 | 8 (≈ 13.4 µM) | > 1000 | > 1000 | > 1000 | > 1000 | > 1000 | > 1000 | > 1000 | > 1000 |  |  |  |  |  | adversely affecting the growth of certain gram-positive bacteria | 4000 | 
